# Key:
# [1] = biological target: T1, Broad substrate specificity ATP-binding cassette transporter ABCG2 (Homo sapiens, UniProt Q9UNQ0); experiment: Inhibition of BCRP (unknown origin)-dependent ATPase activity at 50 uM after 30 mins by malachite green method; conditions: 0.5 h
# T1 sequence (Q9UNQ0 whole entry): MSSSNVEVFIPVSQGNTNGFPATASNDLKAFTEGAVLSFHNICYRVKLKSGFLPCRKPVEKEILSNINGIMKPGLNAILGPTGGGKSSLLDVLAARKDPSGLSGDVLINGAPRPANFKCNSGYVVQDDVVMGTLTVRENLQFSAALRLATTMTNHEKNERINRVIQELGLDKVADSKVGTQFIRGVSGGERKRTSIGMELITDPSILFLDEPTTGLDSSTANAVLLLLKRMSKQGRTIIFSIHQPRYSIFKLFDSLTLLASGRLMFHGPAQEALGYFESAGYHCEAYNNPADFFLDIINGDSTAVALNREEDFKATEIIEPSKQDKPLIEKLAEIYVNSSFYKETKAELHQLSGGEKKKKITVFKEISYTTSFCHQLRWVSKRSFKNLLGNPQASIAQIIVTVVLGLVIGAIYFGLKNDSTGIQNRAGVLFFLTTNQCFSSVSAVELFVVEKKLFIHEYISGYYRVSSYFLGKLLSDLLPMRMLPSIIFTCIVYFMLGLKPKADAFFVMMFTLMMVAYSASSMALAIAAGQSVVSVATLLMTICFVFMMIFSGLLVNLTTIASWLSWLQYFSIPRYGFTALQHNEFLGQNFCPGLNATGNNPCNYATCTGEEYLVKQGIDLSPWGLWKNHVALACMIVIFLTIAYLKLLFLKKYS
# [2] = biological target: T1, Broad substrate specificity ATP-binding cassette transporter ABCG2; experiment: Inhibition of BCRP in human K562 cells assessed as potentiation of SN38-mediated growth inhibition at 3 uM after 4 days by coulter counter method; format: cell-based; conditions: k562, 96 h
# [3] = Cytotoxicity against human Jurkat cells; format: functional, cell-based
# [4] = Cytotoxicity against human HT-29 cells; format: functional, cell-based
# [5] = Cytotoxicity against human HeLa cells; format: functional, cell-based
# [6] = Cytotoxicity against human MCF7 cells; format: functional, cell-based
# [7] = biological target: T2, Kinesin-like protein KIF11 (Homo sapiens, UniProt P52732); experiment: Inhibition of wild type eXact-tagged human Eg5 motor domain (1 to 368 residues) expressed in Escherichia coli BL21(DE3) assessed as reduction in microtubule-stimulated ATPase activity preincubated for 15 mins followed by microtubule addition in the presence of ATP after 6 mins by malachite green method
# T2 sequence (P52732 whole entry): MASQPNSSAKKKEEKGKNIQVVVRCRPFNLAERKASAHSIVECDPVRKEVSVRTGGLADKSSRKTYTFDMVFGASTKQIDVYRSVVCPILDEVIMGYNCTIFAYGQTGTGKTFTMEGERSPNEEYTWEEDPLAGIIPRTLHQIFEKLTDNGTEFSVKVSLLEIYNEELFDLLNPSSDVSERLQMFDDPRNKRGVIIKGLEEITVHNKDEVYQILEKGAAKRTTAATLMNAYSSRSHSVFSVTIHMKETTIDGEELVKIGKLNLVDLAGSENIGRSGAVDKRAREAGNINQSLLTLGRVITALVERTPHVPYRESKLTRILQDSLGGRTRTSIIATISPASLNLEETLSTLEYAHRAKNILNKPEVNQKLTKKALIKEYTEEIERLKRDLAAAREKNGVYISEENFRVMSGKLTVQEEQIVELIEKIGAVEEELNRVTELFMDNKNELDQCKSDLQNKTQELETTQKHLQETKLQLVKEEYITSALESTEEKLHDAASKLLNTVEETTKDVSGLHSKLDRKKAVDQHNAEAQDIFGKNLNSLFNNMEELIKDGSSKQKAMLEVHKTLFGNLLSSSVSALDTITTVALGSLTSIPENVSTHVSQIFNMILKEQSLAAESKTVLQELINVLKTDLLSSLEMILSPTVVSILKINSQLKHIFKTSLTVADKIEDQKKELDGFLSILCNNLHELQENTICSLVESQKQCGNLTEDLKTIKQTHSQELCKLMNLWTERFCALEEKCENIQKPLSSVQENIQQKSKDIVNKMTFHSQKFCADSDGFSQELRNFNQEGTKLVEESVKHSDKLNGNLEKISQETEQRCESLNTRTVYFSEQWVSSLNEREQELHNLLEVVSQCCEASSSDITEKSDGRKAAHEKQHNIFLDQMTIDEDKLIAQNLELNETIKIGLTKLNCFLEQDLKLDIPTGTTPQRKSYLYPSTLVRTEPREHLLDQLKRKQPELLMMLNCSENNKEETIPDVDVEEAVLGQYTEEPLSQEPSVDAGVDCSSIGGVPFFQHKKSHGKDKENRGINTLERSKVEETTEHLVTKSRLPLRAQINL
# [8] = Cytotoxicity against human HeLa cells assessed as reduction in cell viability after 48 hrs by SF-based cell counting method; format: functional
# [9] = Inhibition of Drosophila Kinesin-1 assessed as reduction in microtubule-stimulated ATPase activity preincubated for 15 mins followed by microtubule addition in the presence of ATP after 6 mins by malachite green method
SMILES,inhibition (INH) [1],inhibition (INH) [2],IC50 [3],IC50 [4],IC50 [5],IC50 [6],IC50 [7],IC50 [8],IC50 [9]
COc1ccc2c3c([nH]c2c1)[C@H](C=C(C)C)N1C(=O)[C@@H]2CCCN2C(=O)[C@@H]1C3 [FUMITREMORGIN],Active,Active,,,,,,,
COc1ccc2c3c(n(CC=C(C)C)c2c1)[C@H](C=C(C)C)N1C(=O)[C@@H]2CCCN2C(=O)[C@]1(O)[C@H]3O,Active,Active,5 to 15 µM,5 to 15 µM,5 to 15 µM,5 to 15 µM,,,
CC(C)(O)[C@@H]1C[C@@H](O)[C@]2(C)[C@H](CC[C@@]3(C)[C@H]2CC[C@H]2Cc4c([nH]c5ccccc45)[C@@]23C)O1 [TERPENDOLE E],,,,,,,34.7 µM,12.1 µM,> 100 µM
CC(C)=C[C@H]1c2[nH]c3ccccc3c2C[C@H]2C(=O)N3CCC[C@H]3C(=O)N21 [DEMETHOXYFUMITREMORGIN C],Active,Active,,,,,,,
CC(C)(O)[C@@H]1CC(=O)[C@]2(C)[C@H](CC[C@@]3(C)[C@H]2CC[C@H]2Cc4c([nH]c5ccccc45)[C@@]23C)O1,,,,,,,16.5 µM,2.9 µM,> 100 µM
COc1ccc2c3c([nH]c2c1)[C@H](C=C(C)C)N1C(=O)[C@@H]2CCCN2C(=O)[C@]1(O)[C@H]3O,Active,Active,,,,,,,
COc1ccc2c3c4n(c2c1)[C@@H](C=C(C)C)OOC(C)(C)C[C@@H]4N1C(=O)[C@@H]2CCCN2C(=O)[C@]1(O)[C@H]3O,Active,Active,20 to 30 µM,20 to 30 µM,20 to 30 µM,20 to 30 µM,,,
